{
  "source": "patent US10842762B2",
  "about": "“Method of treating cardiovascular events using colchicine concurrently with an antiplatelet agent” (Murray and Poole Enterprises, LTD., priority 2012, dated 2020)",
  "key": {"[1]": {"test_system": "patients with objectively diagnosed and clinically stable coronary disease", "assay": "LoDoCo Trial: prospective randomized observer blinded end-point trial of colchicine 0.5 mg/day added to standard secondary prevention therapies", "description": "To assess the therapeutic effects of an immediate release formulation in patients with cardiovascular disease, a prospective randomized observer blinded end-point trial was conducted to determine whether adding 0.5 mg/day of colchicine to standard secondary prevention therapies including aspirin and high dose statins reduces the risk of cardiovascular events in patients with objectively diagnosed and clinically stable coronary disease.\nEligible consenting patients with established coronary disease presenting for routine clinical review were randomized to receive colchicine 0.5 mg/day or no colchicine without any other change to their medical therapy. All outcomes were evaluated by an experienced adjudicator blinded to the treatment allocation.\nIt was planned to recruit a study population that would include 500 patients planned (532 patients randomized as 32 dropped out early), 250 randomized to the control group and 250 patients randomized to treatment who were tolerant of colchicine for at least 4 weeks after the date of their randomization. Patients were eligible for inclusion if they met each of the following criteria: 1) angiographically proven coronary disease; 2) aged 35 to 85 years; 3) clinically stable for at least 6 months, 4) no major competing co-morbidities or contra-indication to colchicine therapy, 5) considered to be compliant with therapy and attending routine cardiology follow up appointments, and 6) willing to be consented and randomized into the study. Patients with a history of bypass surgery were only eligible if they had undergone bypass surgery more than 10 years before, or had angiographic evidence of graft failure or had undergone stenting since their bypass surgery. All patients signed informed consent before randomization.\nThe randomization sequence was computer generated, kept concealed from the investigators at all times and was managed by a research assistant who had no involvement in the evaluation or management of study patients. […] Despite electing to use the lowest dose of colchicine available, it was anticipated that a number of patients would withdraw from therapy early after randomization due to gastrointestinal side effects. In order to ensure that the requisite number of patients in the treatment arm were actually tolerant of treatment, the protocol allowed for the research assistant to assign a newly recruited patient to treatment if a patient discontinued colchicine due to side effects in the first month. Patients who were intolerant to therapy remained in the study, and were followed in the usual manner and included in the primary intention to treat analysis.\nThe drug was dispensed by their usual chemist, and if requested, patients were reimbursed for the cost of these scripts. All other treatments were continued as usual.\nPatient compliance with treatment and outcome data were collected at routine follow up visits and at the time of any unplanned hospital admission. An acute coronary syndrome (ACS) was defined as either (a) Acute Myocardial Infarction (AMI), as evidenced by acute ischemic chest pain associated with a rise in serum troponin above the upper limit of normal or (b) Unstable Angina (UA), as evidenced by a recent acceleration of the patient's angina unassociated with a rise in serum troponin but associated with angiographic evidence of a change in the patient's coronary anatomy. […] The ACS was characterized as being stent-related if there was evidence of significant in-stent stenosis or acute stent thrombosis. Out of Hospital Cardiac Arrest was defined as either a sudden death as evidenced on the patient's death certificate, or a non-fatal out of hospital cardiac arrest, defined as a recovery from sudden collapse associated with documented asystole, ventricular tachycardia or ventricular fibrillation."}, "[2]": {"test_system": "patients with a first episode of recurrent pericarditis", "details": "at 18 months; conventional treatment with aspirin plus colchicine (1.0-2.0 mg first day, then 0.5-1.0 mg/d for 6 months); vs 50.6% with conventional treatment; cited from earlier work"}, "[3]": {"details": "No treatment (no antithrombotic), n=1"}, "[4]": {"details": "Treated with Aspirin + clopidogrel + warfarin, n=2"}, "[5]": {"details": "Treated with Aspirin + clopidogrel, n=33"}, "[6]": {"details": "Treated with Aspirin + warfarin, n=6"}, "[7]": {"details": "Treated with Aspirin alone, n=173"}, "[8]": {"details": "Treated with Clopidogrel alone or warfarin alone (no aspirin), n=28"}, "[9]": {"details": "Treated with Clopidogrel alone, n=12"}, "[10]": {"details": "Treated with Warfarin alone, n=16"}, "[11]": {"details": "Treated with at least aspirin, n=214"}, "[12]": {"details": "Treated with at least one antiplatelet drug (aspirin, clopidogrel or combinations), n=226"}, "[13]": {"details": "Treated with at least one antithrombotic drug (aspirin, clopidogrel or warfarin or combinations), n=242"}, "[14]": {"details": "of 282 randomized to treatment, colchicine 0.5 mg/day"}},
  "data": [
    {"smiles": "COc1cc2c(c(OC)c1OC)-c1ccc(OC)c(=O)cc1[C@@H](NC(C)=O)CC2", "note": "[colchicine, N[5,6,7,9-tetrahydro-1,2,3,10-tetratmethoxy 9-oxobenzo[a]heptalen-7-yl],(S)-acetamide]", "values": [
      {"measurement": "stent related ACS with evidence of acute stent thrombosis, patients", "setting": "[1]; 2 in each group", "result": 2},
      {"measurement": "stent related ACS with evidence of significant in-stent stenosis, patients", "setting": "[1]; 2 in each group", "result": 2},
      {"measurement": "Primary Outcome, number of patients", "setting": "[1]; [3]", "result": 0},
      {"measurement": "Primary Outcome, percent", "setting": "[1]; [3]", "result": "(0%)"},
      {"measurement": "Primary Outcome, number of patients", "setting": "[1]; Total, colchicine group n=243", "result": 11},
      {"measurement": "Primary Outcome, percent", "setting": "[1]; Total, colchicine group n=243", "result": "(4.5%)"},
      {"measurement": "Primary Outcome, number of patients", "setting": "[1]; [4]", "result": 0},
      {"measurement": "Primary Outcome, percent", "setting": "[1]; [4]", "result": "(0%)"},
      {"measurement": "Primary Outcome, number of patients", "setting": "[1]; [5]", "result": 3},
      {"measurement": "Primary Outcome, percent", "setting": "[1]; [5]", "result": "(9%)"},
      {"measurement": "Primary Outcome, number of patients", "setting": "[1]; [6]", "result": 0},
      {"measurement": "Primary Outcome, percent", "setting": "[1]; [6]", "result": "(0%)"},
      {"measurement": "Primary Outcome, number of patients", "setting": "[1]; [7]", "result": 7},
      {"measurement": "Primary Outcome, percent", "setting": "[1]; [7]", "result": "(4%)"},
      {"measurement": "Primary Outcome, number of patients", "setting": "[1]; [8]", "result": 1},
      {"measurement": "Primary Outcome, percent", "setting": "[1]; [8]", "result": "(3.45%)"},
      {"measurement": "Primary Outcome, number of patients", "setting": "[1]; [9]", "result": 1},
      {"measurement": "Primary Outcome, percent", "setting": "[1]; [9]", "result": "(8.3%)"},
      {"measurement": "Primary Outcome, number of patients", "setting": "[1]; [10]", "result": 0},
      {"measurement": "Primary Outcome, percent", "setting": "[1]; [10]", "result": "(0%)"},
      {"measurement": "Primary Outcome, number of patients", "setting": "[1]; [11]", "result": 10},
      {"measurement": "Primary Outcome, percent", "setting": "[1]; [11]", "result": "(4.67%)"},
      {"measurement": "Primary Outcome, number of patients", "setting": "[1]; [12]", "result": 11},
      {"measurement": "Primary Outcome, percent", "setting": "[1]; [12]", "result": "(4.9%)"},
      {"measurement": "Primary Outcome, number of patients", "setting": "[1]; [13]", "result": 11},
      {"measurement": "Primary Outcome, percent", "setting": "[1]; [13]", "result": 4.5, "unit": "%"},
      {"measurement": "Primary Outcome, percent", "setting": "[1]; Treated with at least one antithrombotic drug (aspirin, clopidogrel or warfarin or combinations), n=242, listed as Colchicine", "result": "(4.5%)"},
      {"measurement": "patients who died of non-cardiac causes", "setting": "[1]; colchicine group, all deaths", "result": 4, "unit": "patients"},
      {"measurement": "patients who died", "setting": "[1]; colchicine group, control group ten", "result": 4, "unit": "patients"},
      {"measurement": "AMI unrelated to stent disease, hazard ratio", "setting": "[1]; colchicine vs control, 95% CI 0.08-0.76, p=0.014", "result": 0.25},
      {"measurement": "UA unrelated to stent disease, hazard ratio", "setting": "[1]; colchicine vs control, 95% CI 0.10-0.75, p=0.011", "result": 0.27},
      {"measurement": "ACS unrelated to stent disease, hazard ratio", "setting": "[1]; colchicine vs control, 95% CI 0.12-0.55, p<0.001", "result": 0.26},
      {"measurement": "ACS, hazard ratio", "setting": "[1]; colchicine vs control, 95% CI 0.18-0.63, p<0.001", "result": 0.33},
      {"measurement": "primary outcome, number needed to treat", "setting": "[1]; intention-to-treat, colchicine vs control", "result": 11},
      {"measurement": "primary outcome, hazard ratio", "setting": "[1]; intention-to-treat, colchicine vs control, 95% CI 0.18-0.59, p<0.001", "result": 0.33},
      {"measurement": "primary outcome, percent of patients", "setting": "[1]; intention-to-treat, colchicine 0.5 mg/day, median follow up 36 months, control 16%", "result": 5.3, "unit": "%"},
      {"measurement": "primary outcome (ACS, out of hospital cardiac arrest or non-cardio-embolic ischemic stroke), patients with event / patients assigned", "setting": "[1]; intention-to-treat, colchicine 0.5 mg/day, median follow up 36 months, control 40/250", "result": "15/282"},
      {"measurement": "ACS unrelated to stent disease associated with an AMI, percent", "setting": "[1]; intention-to-treat, control 5.6%", "result": 1.4, "unit": "%"},
      {"measurement": "ACS unrelated to stent disease, UA, percent", "setting": "[1]; intention-to-treat, control 6.4%", "result": 1.8, "unit": "%"},
      {"measurement": "ACS unrelated to stent disease, percent", "setting": "[1]; intention-to-treat, control 12%", "result": 3.2, "unit": "%"},
      {"measurement": "patients presenting with an ACS, percent", "setting": "[1]; intention-to-treat, control 13.4%", "result": 4.6, "unit": "%"},
      {"measurement": "ACS unrelated to stent disease associated with an AMI, patients / patients assigned", "setting": "[1]; intention-to-treat, control 14/250", "result": "4/282"},
      {"measurement": "ACS unrelated to stent disease, UA, patients / patients assigned", "setting": "[1]; intention-to-treat, control 16/250", "result": "5/282"},
      {"measurement": "ACS unrelated to stent disease, patients / patients assigned", "setting": "[1]; intention-to-treat, control 30/250", "result": "9/282"},
      {"measurement": "patients presenting with an ACS / patients assigned", "setting": "[1]; intention-to-treat, control 34/250", "result": "13/282"},
      {"measurement": "early intolerance due to gastrointestinal side effects, patients", "setting": "[1]; [14]", "result": 32},
      {"measurement": "early intolerance due to gastrointestinal side effects, percent", "setting": "[1]; [14]", "result": 11, "unit": "%"},
      {"measurement": "events (primary outcome), hazard ratio", "setting": "[1]; on-treatment analysis vs control, 95% CI 0.15-0.56, p<0.001", "result": 0.29},
      {"measurement": "events (primary outcome), percent", "setting": "[1]; on-treatment analysis: compliant and tolerant beyond the first month, control 16%", "result": 4.5, "unit": "%"},
      {"measurement": "events (primary outcome), patients / patients compliant and tolerant", "setting": "[1]; on-treatment analysis: compliant and tolerant to therapy beyond the first month, control 40/250", "result": "11/243"},
      {"measurement": "out of hospital cardiac arrest and non-cardio-embolic ischemic stroke", "setting": "[1]; treatment group vs control, infrequent events", "result": "also reduced"},
      {"measurement": "recurrence rate (actuarial rate)", "setting": "[2]", "result": 24.0, "unit": "%"}
    ]}
  ]
}
